# Laboratory results as given in ChEMBL document CHEMBL1681661, “Design of novel CXCR4 antagonists that are potent inhibitors of T-tropic (X4) HIV-1 replication” (Bioorg Med Chem Lett, 2011).
# Legend:
# [1] = tested on: Human immunodeficiency virus 1; test: Antiviral activity against X4 tropic HIV1 NL4.3 infected in CD4 and CXCR4 expressing human MT4 cells assessed as inhibition of viral cytopathicity; type: functional, organism-based; conditions: Human immunodeficiency virus 1, NL4.3, MT4
# [2] = Cytotoxicity against human MT4 cells expressing CD4 and CXCR4 assessed as cell viability; type: cell-based
# [3] = tested on: Human immunodeficiency virus 1; test: Antiviral activity against X4 tropic HIV1 NL4.3 infected in human PBMC assessed as inhibition of viral cytopathicity; type: functional, organism-based; conditions: Human immunodeficiency virus 1, NL4.3
# [4] = tested on: Human immunodeficiency virus 1; test: Antiviral activity against X4 tropic HIV1 NL4.3 infected in human PBMC assessed as inhibition of viral cytopathicity in presence of 1 mg/ml of alpha-acid glycoprotein; type: functional
# [5] = Cmax in rat; type: ADME, organism-based; conditions: in vivo
# [6] = Cmax in dog; type: ADME, organism-based, Canis lupus familiaris; conditions: in vivo
# [7] = AUC (0 to infinity) in rat; type: ADME, organism-based; design: time infinity; concentration or dose not given beside the values; conditions: plasma
# [8] = AUC (0 to infinity) in dog; type: ADME, organism-based, Canis lupus familiaris; design: time infinity; concentration or dose not given beside the values; conditions: plasma
# [9] = target: T1, C-X-C chemokine receptor type 4 (Homo sapiens, UniProt P61073); test: Antagonist activity at CXCR4 in human CEM-CCRF cells assessed as inhibition of SDF-1-induced calcium signaling; type: functional, cell-based
# T1 sequence (P61073 whole entry): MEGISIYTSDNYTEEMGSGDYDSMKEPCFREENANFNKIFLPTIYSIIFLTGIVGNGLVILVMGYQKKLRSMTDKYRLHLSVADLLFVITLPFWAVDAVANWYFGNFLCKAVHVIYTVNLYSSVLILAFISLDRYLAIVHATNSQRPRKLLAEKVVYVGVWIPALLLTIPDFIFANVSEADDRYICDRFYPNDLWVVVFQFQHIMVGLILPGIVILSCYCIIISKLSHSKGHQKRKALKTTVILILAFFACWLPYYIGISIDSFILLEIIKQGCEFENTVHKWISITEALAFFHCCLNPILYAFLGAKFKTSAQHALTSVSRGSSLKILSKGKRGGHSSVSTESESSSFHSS
# [10] = Oral bioavailability in rat at 100 umol/kg, […]; type: ADME, organism-based; conditions: in vivo
# [11] = target: T1, C-X-C chemokine receptor type 4; test: Displacement of [125I]SDF-1alpha from CXCR4 in human CEM-CCRF cells by liquid scintillation counting; type: cell-based
# [12] = Clearance in rat at 10 umol/kg, iv; type: ADME, organism-based; conditions: in vivo
# [13] = Clearance in dog at 5 umol/kg, iv; type: ADME, organism-based, Canis lupus familiaris; conditions: in vivo
# [14] = Volume of distribution at steady state in rat at 10 umol/kg, iv; type: ADME, organism-based; conditions: in vivo, read-out: Vdss
# [15] = Volume of distribution at steady state in dog at 5 umol/kg, iv; type: ADME, organism-based, Canis lupus familiaris; conditions: in vivo, read-out: Vdss
# [16] = Half life in rat at 10 umol/kg, iv; type: ADME, organism-based; conditions: in vivo
# [17] = Half life in dog at 5 umol/kg, iv; type: ADME, organism-based, Canis lupus familiaris; conditions: in vivo
# [18] = Oral bioavailability in dog at 12.5 umol/kg; type: ADME, organism-based, Canis lupus familiaris; conditions: in vivo
Structure (SMILES),IC50 [1] [nM],CC50 [2] [nM],also measured
CC(c1cccc(N)n1)N(CCCCN)Cc1nc2ccccc2[nH]1 (stereo not given),2290,> 149000,–
Cc1ccnc(C(C)N(CCCCN)Cc2nc3ccccc3[nH]2)c1 (stereo not given),438,> 142000,–
C[C@@H](c1ccccn1)N(CCCCN)Cc1nc2ccccc2[nH]1,1.4,–,IC50 [3]: 2 nM; fold change (FC) [4]: 5.4; Cmax [5]: 180 nM; Cmax [6]: 1330 nM; AUC(0-inf) [7]: 0.33 µM·h; AUC(0-inf) [8]: 1.7 µM·h
NCCCCN(Cc1ccccn1)C1CCCc2cccnc21 (racemic),15.3,165000,–
CCC(c1ccccn1)N(CCCCN)Cc1nc2ccccc2[nH]1 (stereo not given),874,> 162000,–
CC(C)(c1ccccn1)N(CCCCN)Cc1nc2ccccc2[nH]1,2500,> 159000,–
Cc1cccnc1CN(CCCCN)C(C)c1ccccn1 (stereo not given),1.1,45400,–
NCCCCN(Cc1ncccc1N)[C@H]1CCCc2cccnc21,1.6,–,IC50 [3]: 2.1 nM; fold change (FC) [4]: 4.3; Cmax [5]: 1660 nM; Cmax [6]: 7740 nM; AUC(0-inf) [7]: 8.73 µM·h; AUC(0-inf) [8]: 21.2 µM·h
Cc1ccc(CN(CCCCN)C2CCCc3cccnc32)nc1 (racemic),5.3,35300,IC50 [9]: 35 nM
NCCCCN(Cc1ccccn1)Cc1nc2ccccc2[nH]1,41,151000,–
CC(c1ccccn1)N(CCCCN)Cc1ncccc1N (racemic),18.4,167000,IC50 [9]: 72 nM
NCCCCN(Cc1cccc(N)n1)C1CCCc2cccnc21 (racemic),30,158000,–
Cc1cccnc1CN(CCCCN)C1CCCc2cccnc21 (racemic),23.3,32400,–
NCCCCN(Cc1ncccc1CO)C1CCCc2cccnc21 (racemic),2.1,155000,–
NCCCCN(Cc1nc2ccccc2[nH]1)Cc1ncccc1O,> 149000,> 149000,–
Cc1cnc(CN(CCCCN)C(C)c2ccccn2)c(C)c1 (racemic),1.8,163000,IC50 [9]: 20 nM
Cc1cnc(CN(CCCCN)C2CCCc3cccnc32)c(C)c1 (racemic),0.63,32600,IC50 [9]: 19 nM
Cc1ccnc(C(C)N(CCCCN)Cc2ncccc2C)c1 (racemic),0.3,138000,–
COCc1cccc(CN(CCCCN)C2CCCc3cccnc32)n1 (racemic),553,> 154000,–
Cc1cccnc1C(C)N(CCCCN)Cc1nc2ccccc2[nH]1 (stereo not given),505,> 146000,–
CC(C)c1cccnc1CN(CCCCN)Cc1nc2ccccc2[nH]1,34,145000,–

Structure (SMILES),IC50 [1] [nM],CC50 [2] [nM],also measured
CC(c1ccccn1)N(CCCCN)Cc1ncccc1C(C)(C)C (racemic),1.6,158000,–
CC(C)C(c1ccccn1)N(CCCCN)Cc1nc2ccccc2[nH]1 (stereo not given),16300,> 162000,–
NCCCCN(Cc1ncccc1N)C1CCCc2cccnc21 (racemic),19.7,169000,–
Cc1ccc(CN(CCCCN)C(C)c2ccccn2)nc1 (racemic),48.1,158000,–
NCCCCN(Cc1nc2ccccc2[nH]1)C(c1ccccc1)c1ccccn1 (stereo not given),13300,> 148000,–
CC(C)c1cccnc1CN(CCCCN)C1CCCc2cccnc21 (racemic),8.4,33800,–
CC(c1ccccn1)N(CCCCN)Cc1ncccc1C(F)(F)F (racemic),39.1,> 155000,IC50 [9]: 111 nM
Cc1cc(C)nc(CN(CCCCN)C2CCCc3cccnc32)c1 (racemic),17,149000,–
Cc1cccc(CN(CCCCN)C2CCCc3cccnc32)n1 (racemic),2.9,299000,–
Cc1cccnc1CN(CCCCN)[C@@H](C)c1ccccn1,1.1,–,IC50 [3]: 2.1 nM; fold change (FC) [4]: 14.2; Cmax [5]: 1580 nM; AUC(0-inf) [7]: 11.2 µM·h; AUC(0-inf) [8]: 7.49 µM·h
Cc1ccnc(CN(CCCCN)C2CCCc3cccnc32)c1 (racemic),47.8,36900,–
NCCCCN(Cc1ncccc1Cl)C1CCCc2cccnc21 (stereo not given),0.4,191000,–
Cc1cccc(CN(CCCCN)[C@H]2CCCc3cccnc32)n1,2.4,–,IC50 [3]: 15.8 nM; fold change (FC) [4]: 0.6; Cmax [5]: 1460 nM; Cmax [6]: 2060 nM; AUC(0-inf) [7]: 8.75 µM·h; AUC(0-inf) [8]: 7.75 µM·h
NCCCCN(Cc1nc2ccccc2[nH]1)[C@H]1CCCc2cccnc21 [MAVORIXAFOR],4.8,–,–
Cc1ccc(C(C)N(CCCCN)Cc2nc3ccccc3[nH]2)nc1 (stereo not given),3.8,> 146000,–
Cc1cccc(CN(CCCCN)C(C)c2ccccn2)n1 (racemic),15,> 145000,IC50 [9]: 183 nM
NCCCCN(Cc1ncccc1O)C1CCCc2cccnc21 (racemic),113,149000,–
Cc1cccc(C(C)N(CCCCN)Cc2nc3ccccc3[nH]2)n1 (stereo not given),4100,> 167000,–
CC(c1ccccn1)N(CCCCN)Cc1nc2ccccc2[nH]1 (stereo not given),18,> 161000,–
Cc1cnc(CN(CCCCN)[C@H]2CCCc3cccnc32)c(C)c1,7.7,–,bioavailability [10]: 42%; IC50 [11]: 62.9 nM; IC50 [3]: 3.6 nM; fold change (FC) [4]: 2.8; Cmax [5]: 2700 nM; Cmax [6]: 7160 nM; AUC(0-inf) [7]: 20.7 µM·h; AUC(0-inf) [8]: 22.1 µM·h; clearance [12]: 31.7 mL/min/kg; clearance [13]: 3.3 mL/min/kg; Vd [14]: 28.5 L/kg; Vd [15]: 8.7 L/kg; half-life [16]: 10.5 h; half-life [17]: 39.6 h; bioavailability [18]: 51%
